Experimental findings from ChEMBL document CHEMBL5550121, “Expanding the ligand spaces for E3 ligases for the design of protein degraders” (Bioorg Med Chem, 2024) are described below.

In experiment [1] the target is Polycomb protein EED (Homo sapiens, UniProt O75530). As to the kind of experiment: Inhibition of EED (unknown origin) by ELISA based assay. A general note: An ELISA detects its analyte on a solid surface through an enzyme-linked reagent.
Experiment [2] is described as follows: Inhibition of p38 (unknown origin).

Chain of Polycomb protein EED (O75530 whole entry): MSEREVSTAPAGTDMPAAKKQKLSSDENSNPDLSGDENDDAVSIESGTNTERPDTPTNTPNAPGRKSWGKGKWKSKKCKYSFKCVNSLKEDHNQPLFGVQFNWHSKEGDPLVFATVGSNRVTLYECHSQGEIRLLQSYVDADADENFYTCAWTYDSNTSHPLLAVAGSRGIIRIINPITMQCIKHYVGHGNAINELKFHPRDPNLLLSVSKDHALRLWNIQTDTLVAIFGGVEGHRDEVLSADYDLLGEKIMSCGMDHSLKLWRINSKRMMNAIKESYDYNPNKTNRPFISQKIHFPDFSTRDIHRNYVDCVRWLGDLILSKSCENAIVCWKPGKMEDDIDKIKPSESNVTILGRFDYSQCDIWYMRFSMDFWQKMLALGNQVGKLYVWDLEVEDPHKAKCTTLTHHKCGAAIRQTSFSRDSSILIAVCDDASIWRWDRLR

As a reminder, the IC50 is the concentration that inhibits the measured activity by half. The low end stands for higher potency, the high end for lower potency. In experiment [1], `Cc1ncccc1-c1cnc(NCc2c(F)ccc3c2CCO3)n2cnnc12` showed an IC50 of 0.026 µM. `COc1cc2c(Oc3ccc(NC(=O)C4(C(=O)Nc5ccc(F)cc5)CC4)cc3F)ccnc2cc1OCCCN1CCOCC1` [FORETINIB] showed an IC50 in experiment [2] of 11 µM.
